Results: US20050131463A1, “Perfusion chamber for recording evoked and spontaneous electrical activity from submerged acute brain slices” (priority 2003, published 2005)

Tested on: str. radiatum CA1 region of rat hippocampal slices (LTP)
Test: LTP test (40 Hz theta burst tetanization) in submerged hippocampal slices, field EPSP recording in multi-chamber device
Type: cell-based
Details: 40 Hz×4×10 theta burst, p<0.01, 4 rats, 12 slices
Description: A twelve-chamber assembly of chambers according to the embodiment of the invention described in Example 1 is prepared for measurement of twelve slices simultaneously. Each chamber is prepared such that the top ends of the electrodes are placed 50 μm below the bottom net. Bipolar stimulation is utilized and the distance between electrodes is set to 100 μm. Such an assembly with fixed electrodes may be utilized for numerous experiments without readjustment of the electrodes. Individual chambers in the assembly may be replaced as necessary with new chambers. Electrophysiology experiments are performed on a 6-month old male rat. 400 μm hippocampal slices from the rat are prepared using a VIBROTOMETM (vibroslicer WPI; World Precision Instruments) to assure precise thickness. Slices were incubated for 2 hours at room temperature in a perfusion solution containing, in mM, 119 NaCl, 2.5 KCl, 2.5 CaCl2, 1.3 MgSO4, 1.25 NaH2PO4, 26.0 NaHCO3, 10 glucose and equilibrated with 95% O2 and 5% CO2 (pH 7.3-7.4) at room temperature. […] Simultaneous recording from the twelve slices is measured using electrophysiological software, […] […] 30 seconds after the single tetanus, baseline is continued to be collected as before and LTP was measured 60 minutes after tetanization. […] LOGEC 50 values are determined using Prizm4 software (Graphpad).

Q: Which results are given for COc1ccc(C2CNC(=O)C2)cc1OC1CCCC1 (centres unmarked) [rolipram]?
A: % of facilitation of the LTP 60 minutes after tetanic stimulation (rolipram 1 μM in perfusion fluid): significant; % of facilitation of the LTP 60 minutes after tetanic stimulation (rolipram 10 μM in perfusion fluid): significant
